What was measured:
PC3 = test: Antibody-dependent cell-mediated cytotoxicity, chromium 51 release, human PBMC effectors; type: cell-based; settings: target PC3 (PSMA negative); plasma 1:50 or control mAb
Experimental: (§1) An Indian rhesus macaque was immunized with a nucleic acid encoding a human PSMA modified antigen delivered by adenovirus (1e11 V.P. injected intramuscularly) followed by 2 PMED immunizations (8 actuations/immunization, 4 actuations per each right and left side of the lower abdomen) with 8 and 6 week intervals respectively. The animal also received intradermal injections of 3 mg of CpG (PF-03512676) in proximity to each inguinal draining lymph node at the time of the second PMED immunization. The antibody dependent cell-mediated cytotoxicity was determined from the plasma collected from the blood before any immunizations (pre-immune plasma) and 8 days after the last PMED immunization (immune plasma).
(§2) Antibody-dependent cell-mediated cytotoxicity was determined using the standard chromium 51 release assay. Human prostate cancer cell lines LNCaP and PC3 were used as target cells. Freshly isolated human PBMC cells were used as effector cells. Effectors to target cells were set at 30:1. Briefly, for one labeling reaction, 1.5×10^6 target cells in 200 ul were incubated with 200 μCi ^51Cr (37° C., 5% CO2 for 1 hour).

LNCaP = test: as above; type: cell-based; settings: target LNCaP (PSMA+); plasma 1:50 or control mAb
Experimental: as §1, §2

rHER2 [1] = test: IFNγ ELISPOT, rHER2 DNA vaccine with CpG7909 or anti-CD40 in BALB/c mice; type: in vivo, mouse; settings: FIG. 40; intradermal after PMED; CpG7909 50 g or anti-CD40 100 ug as printed; versus control antibodies; 7 days after PMED
Experimental: The effect of local administration of immune modulators on the magnitude and quality of antigen specific immune responses induced by a cancer was investigated in BALB/c mice, in which the immune response was assessed by measuring rHER2 specific T cell responses using the IFNγ ELISPOT assay or intracellular cytokine staining assay. Briefly, 4 to 6 female BALB/c mice per group as indicated were immunized with DNA plasmid expression constructs encoding rHER2 antigen sequences (SEQ ID NO:54) by PMED delivery system. […] Antigen specific T cell responses were measured by IFNγ […]ELISPOT or intracellular cytokine staining assay according to the procedure described below.
Briefly, each mouse per treatment group (n=4) was immunized with DNA plasmid expression constructs encoding rHER2 antigen sequences (SEQ ID NO:54) by PMED immediately followed by either 100 ug of control rat IgG monoclonal antibody (Bioxcell #BE0089: control mAb) or 50 g CpG7909 or 100 ug of anti-CD40 monoclonal antibody (Bioxcell #BE0016-2: a-CD40 mAb) as indicated. The antigen specific immune responses were measured by IFNγ ELISPOT assay from 5e5 splenocytes mixed with control or rHer-2 specific p66 peptides at 10 µg/ml concentration, 7 days after the PMED actuation. […]

rhesus PSMA = test: IFNγ ELISPOT of PBMCs, PSMA DNA electroporation with or without CpG in Chinese cynomolgus macaques, rhesus PSMA peptide pools; type: in vivo; settings: group 6: 200 μg CpG co-electroporated, compared to animals that did not receive CpG (group 1); P<0.05
Experimental: (§3) Six groups of Chinese cynomolgus macaques, six (#1 to 6) per each test group, were immunized with a plasmid DNA encoding the human PSMA modified antigen (amino acids 15-750 of SEQ ID NO:1) delivered by electroporation. Briefly, all animals received bilateral intramuscular injections of 5 mg of plasmid DNA followed by electroporation (DNA EP) on day 0. Subsequently right after the electroporation, group 2 received bilateral intramuscular injections of 2 mg of CpG mixed with 1 mg Alum in proximity to the DNA injection sites. Group 3 and 4 received bilateral intramuscular injections of 2 mg of CpG delivered without alum in proximity to the DNA injection sites either on day 0 or day 3, respectively. Group 5 received 2 mg of bilateral intradermal injections of CpG delivered in proximity to the vaccine draining inguinal nodes on day 3. Group 6 received bilateral injections of 200 μg of CpG mixed with the DNA solution which was co-electroporated into the muscle on day 0.
Peripheral blood samples were collected from each animal fifteen days after the DNA immunization. Peripheral blood mononuclear cells (PBMCs) were isolated from the blood samples and were subjected to an IFNγELISPOT assay to measure the PSMA specific T cell responses. […] The number of IFNγ spot forming cells (SFC) were counted by CTL reader. […] ND indicates not determined.

rHER2 [2] = test: Intracellular cytokine staining, rHER2 DNA vaccine with CpG 7909 or anti-CD40 in BALB/c mice; type: in vivo, rat; settings: FIGS. 41A, 41B; CpG 7909 intradermal after both PMED immunizations, versus PBS
Experimental: The effect of local administration of immune modulators on the magnitude and quality of antigen specific immune responses induced by a cancer was investigated in BALB/c mice, in which the immune response was assessed by measuring rHER2 specific T cell responses using the IFNγ ELISPOT assay or intracellular cytokine staining assay. Briefly, 4 to 6 female BALB/c mice per group as indicated were immunized with DNA plasmid expression constructs encoding rHER2 antigen sequences (SEQ ID NO:54) by PMED delivery system. The immune modulators, CpG7909 (PF-03512676) and anti-CD40 monoclonal agonistic antibody, were administered locally by intradermal injections in proximity to the vaccine draining inguinal lymph node subsequently after the PMED actuations. Antigen specific T cell responses were measured by IFNγ […]ELISPOT or intracellular cytokine staining assay according to the procedure described below.
The rHer-2 specific polyfunctional (multi-cytokine positive) T cell immune responses were measured from splenocytes or PBMCs isolated from individual animals by ICS assay. […] The total number of antigen specific single, double or triple cytokine positive T cells per total spleen of each animal is calculated by subtracting the rHer-2 specific responses to the irrelevant peptide HBV from the vaccine specific responses and normalized to the total number of splenocytes isolated from the spleen.

human PSMA = test: IFNγ ELISPOT of PBMCs, PSMA DNA electroporation with or without CpG in Chinese cynomolgus macaques, human PSMA peptide pools; type: in vivo, cynomolgus macaque; settings: for animals that failed to produce high responses: intramuscular right after electroporation on day 0; for animals with modestly higher total response to the PSMA peptides: 3 days after DNA electroporation, cynomolgus
Experimental: as §3
Peripheral blood samples were collected from each animal fifteen days after the DNA immunization. Peripheral blood mononuclear cells (PBMCs) were isolated from the blood samples and were subjected to an IFNγELISPOT assay to measure the PSMA specific T cell responses. Briefly, 4e5 PBMCs from individual animals were plated per well with pools of PSMA specific peptides or nonspecific control peptides (human HER2 peptide pool) each at 2 ug/ml in IFNγELISPOT plates. The plates were incubated for 16 hrs at 37° C. and 5% CO2 and washed and developed after incubation as per manufacturer's instruction. The number of IFNγ spot forming cells (SFC) were counted by CTL reader. Each condition was performed in duplicates. […] ND indicates not determined.

[3] = cited from earlier work

Substance	Percent specific lysis at E:T of 30:1 (PC3)	Percent specific lysis at E:T of 30:1 (LNCaP)	magnitude of antigen specific immune responses induced by rHer-2 DNA (IFNγ ELISPOT, p66 peptide) (rHER2 [1])	response to peptide pool R1 (rhesus PSMA)	rHer-2 specific multi-cytokine positive CD8 and CD4 T cell responses (rHER2 [2])	animals that failed to produce high responses (human PSMA; group 2: CpG 2 mg mixed with 1 mg Alum)	animals that failed to produce high responses (human PSMA; group 3: CpG 2 mg without alum)	animals with modestly higher total response to the PSMA peptides (human PSMA; group 4: CpG 2 mg bilateral intramuscular)	animals with modestly higher total response to the PSMA peptides (human PSMA; group 5: CpG 2 mg bilateral intradermal)	animals with higher net responses (human PSMA; group 6: 200 μg CpG co-electroporated with the DNA solution into the muscle)	response to peptide pool H1 (human PSMA; group 6: 200 μg CpG co-electroporated, compared to animals that did not receive CpG (group 1), P<0.05)	single intravenous dose well tolerated with no clinical effects and no significant toxicity ([3]; patients with previously treated chronic lymphocytic leukemia)	dose limiting toxicity ([3]; single dose subcutaneous)	maximum tolerated dose (MTD) ([3]; single dose subcutaneous)
Rituxan: monoclonal against B cell antigen (CD20), negative control antibody	0%	8.99%	–	–	–	–	–	–	–	–	–	–	–	–
5′ TCGTCGTTTTGTCGTTTTGTCGTT3′ [CpG 7909]	–	–	significantly enhanced the magnitude of antigen specific immune responses	statistically higher response	significant increase	4/6	3/6	3/6	2/6	4/6	statistically higher response	up to 1.05 mg/kg	myalgia and constitutional effects	0.45 mg/kg

Source: patent publication US11110158B2, “Prostate-associated antigens and vaccine-based immunotherapy regimens” (Pfizer Inc., priority 2012, dated 2021)
